Test results published in US20100035943A1, “Oxa-and thiadiazoles and their use as metalloproteinase inhibitors” (VERNALIS (OXFORD) LTD, priority 2002, published 2010).

Assays:
[1] = system: IL2-induced lymphocyte recruitment; assay: IL2-induced peritoneal recruitment of lymphocytes; format: in vivo, C3H/HEN mice; details: mice, Subcutaneous route, 15 min prior to IL2, cells counted 24 hours after IL2
Experimental: Administration of IL2 intraperitoneally causes migration of lymphocytes into the intraperitoneal cavity. This is a model for the cellular migration that occurs during inflammation.
C3H/HEN mice (Elevage Janvier, France) were intraperitoneally injected with IL2 (Serono Pharmaceutical Research Institute, 20 μg/kg, in saline). Compounds of the invention were suspended in 0.5% carboxymethylcellulose (CMC)/0.25% tween-20 and were administered by sc or po route (10 ml/kg) 15 min prior to administration of IL2.
Twenty-four hours after administration of IL2, peritoneal white blood cells were collected by 3 successive lavages of the peritoneal cavity with 5 ml phosphate buffered saline (PBS)-1 mM EDTA (+4° C.). The suspension was centrifuged (1700 g×10 min at +4° C.). The resulting pellet was suspended in 1 ml PBS-1 mM EDTA.
Lymphocytes were identified and counted using a Beckman/Coulter counter.
The animals were divided into 5 groups (6 mice each group):
Group 1: (baseline) received 0.5% CMC/0.25% tween-20 (vehicle of compound of the invention) and saline (vehicle of IL2); Group 2: (control IL2) received 0.5% CMC/0.25% tween-20 and injection of IL2; Group 3: Experimental group (Compound of the invention Dose 1) received a compound of the invention and injection of IL2; Group 4: Experimental group (Compound of the invention Dose 2) received a compound of the invention and injection of IL2; Group 5: Experimental group (Compound of the invention Dose 3) received a compound of the invention and injection of IL2; Group 6: Reference group received reference compound dexamethasone and injection of IL2
Inhibition of lymphocyte recruitment was calculated as follows:
Where Ly 1=Number of lymphocytes in group 1 (E3/μl), Ly 2=Number of lymphocytes in group 2 (E3/μl), Ly X=Number of lymphocytes in group X (3-5) (E3/μl)
The dose of compound of the invention required to inhibit lymphocyte recruitment by 50% (ID50) was calculated using a curve-fitting routine.

collagenase (MMP1) = target: T1, collagenase (MMP1) (Homo sapiens, UniProt P03956); assay: MMP1 enzyme inhibition assay (fluorogenic peptide substrate McaPLGLDpaAR); format: biochemical; details: protocol as for MMP9 assay
T1 sequence (P03956 100-469): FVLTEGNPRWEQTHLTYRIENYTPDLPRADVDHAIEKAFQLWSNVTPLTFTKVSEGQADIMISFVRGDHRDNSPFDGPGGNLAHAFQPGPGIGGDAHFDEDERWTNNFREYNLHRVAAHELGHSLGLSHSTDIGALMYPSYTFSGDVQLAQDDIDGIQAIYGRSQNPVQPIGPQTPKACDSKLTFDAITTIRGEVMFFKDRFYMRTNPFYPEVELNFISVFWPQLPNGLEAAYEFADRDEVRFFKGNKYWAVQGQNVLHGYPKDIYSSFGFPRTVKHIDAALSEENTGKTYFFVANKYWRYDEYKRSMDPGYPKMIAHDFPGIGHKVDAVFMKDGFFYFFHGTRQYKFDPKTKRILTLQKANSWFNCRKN
Experimental: (§1) Stock solutions were made up as follows: • Assay Buffer: 100 mM Tris-HCl pH 7.6 containing 100 mM NaCl, 10 mM CaCl2, and 0.05% Brij 35 • Substrate: 0.4 mM McaPLGLDpaAR (from Bachem) (0.437 mg/ml) stock solution in 100% DMSO (stored at −20° C.). Dilute to 8 μM in assay buffer. • Enzyme: Recombinant human 92 kDa gelatinase (MMP-9; APMA (4-aminophenyl • mercuric acetate)—activated if necessary) appropriately diluted in assay buffer.
(§2) Test Compounds were prepared initially as 10 mM compound solution in 100% DMSO, diluted to 1 mM in 100% DMSO, then serially diluted 3-fold in 100% DMSO across columns 1-10 of a 96-well microtitre plate Assay concentration range, 100 μM (column 1) to 5.1 nM (column 10)
(§3) The assay was performed in a total volume of 100 μl per well in 96-well microtitre plates. Activated enzyme (20 μl) was added to the wells followed by 20 μl of assay buffer. Appropriate concentrations of test compounds dissolved in 10 μl of DMSO were then added followed by 50 μl of McaPLGLDpaAR (8 μM, prepared by dilution of DMSO stock in assay buffer). For each assay ten concentrations of test compound were examined in duplicate. Control wells lack either enzyme or test compound. The reactions were incubated at 37° C. for 2 hours. The fluorescence at 405 nm was measured immediately with an SLT Fluostar fluorometer (SLT Labinstruments GmbH, Grödig, Austria) using 320 nm excitation, without stopping the reaction.
(§4) The effect of the test compound was determined from the dose response curve generated by the 10 duplicate concentrations of inhibitor. The IC50 (the concentration of compound required to give a 50% decrease in enzyme activity) was obtained by fitting data to the equation, Y=a+((b−a)/(1+(c/X)^d)). (Y=inhibition achieved for a particular dose; X=the dose in nM; a=minimum y or zero % inhibition; b=maximum y or 100% inhibition; c=is the IC50; d=is the slope). The result was rounded to one significant figure.
(§5) • Compounds were tested for inhibitory activity against collagenase (MMP1) in an assay using a coumarin-labelled peptide substrate, (7-methoxycoumarin-4-yl)acetyl-Pro-Leu-Gly-Leu-(3-[2,4-dinitrophenyl]-L-2,3-diaminopropionyl)-Ala-Arg-NH2 (McaPLGLDpaAR) (Knight et al, FEBS Lett. 1992; 263-266). The protocol for this assay was as described for the MMP9 assay above.

92 kDa gelatinase (MMP9) = 92 kDa gelatinase (MMP9) (Homo sapiens, UniProt P14780); assay: MMP9 enzyme inhibition assay (fluorogenic peptide substrate McaPLGLDpaAR); format: biochemical; details: recombinant human 92 kDa gelatinase, 37° C., 2 hours
92 kDa gelatinase (MMP9), sequence (P14780 107-707 limits assumed): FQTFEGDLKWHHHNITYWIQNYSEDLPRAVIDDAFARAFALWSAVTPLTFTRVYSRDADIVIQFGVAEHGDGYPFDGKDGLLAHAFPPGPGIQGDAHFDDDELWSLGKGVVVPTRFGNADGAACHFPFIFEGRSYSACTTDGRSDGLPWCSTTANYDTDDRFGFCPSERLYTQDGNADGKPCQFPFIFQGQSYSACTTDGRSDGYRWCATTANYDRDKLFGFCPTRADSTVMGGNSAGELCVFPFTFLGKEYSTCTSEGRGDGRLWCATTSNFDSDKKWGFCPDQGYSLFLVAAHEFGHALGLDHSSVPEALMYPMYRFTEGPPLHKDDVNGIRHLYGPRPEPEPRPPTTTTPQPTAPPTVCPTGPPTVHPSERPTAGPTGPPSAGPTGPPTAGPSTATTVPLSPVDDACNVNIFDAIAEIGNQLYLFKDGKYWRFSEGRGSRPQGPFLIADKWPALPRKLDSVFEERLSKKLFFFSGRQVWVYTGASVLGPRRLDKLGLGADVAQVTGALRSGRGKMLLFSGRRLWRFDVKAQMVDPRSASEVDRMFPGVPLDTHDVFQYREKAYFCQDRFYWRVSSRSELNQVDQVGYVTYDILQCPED
Experimental: Compounds were tested for inhibitory activity against 92 kDa gelatinase (MMP9) in an assay using a coumarin-labelled peptide substrate, (7-methoxycoumarin-4-yl)acetyl-Pro-Leu-Gly-Leu-(3-[2,4-dinitrophenyl]-L-2,3-diaminopropionyl)-Ala-Arg-NH2 (McaPLGLDpaAR) (Knight et al, FEBS Lett. 1992; 263-266).
as §1, §2, §3, §4

metalloelastase (MMP12) = metalloelastase (MMP12) (Homo sapiens, UniProt P39900); assay: MMP12 enzyme inhibition assay (fluorogenic peptide substrate McaPLGLDpaAR); format: biochemical; details: protocol as for MMP9 assay
metalloelastase (MMP12), sequence (P39900 106-470): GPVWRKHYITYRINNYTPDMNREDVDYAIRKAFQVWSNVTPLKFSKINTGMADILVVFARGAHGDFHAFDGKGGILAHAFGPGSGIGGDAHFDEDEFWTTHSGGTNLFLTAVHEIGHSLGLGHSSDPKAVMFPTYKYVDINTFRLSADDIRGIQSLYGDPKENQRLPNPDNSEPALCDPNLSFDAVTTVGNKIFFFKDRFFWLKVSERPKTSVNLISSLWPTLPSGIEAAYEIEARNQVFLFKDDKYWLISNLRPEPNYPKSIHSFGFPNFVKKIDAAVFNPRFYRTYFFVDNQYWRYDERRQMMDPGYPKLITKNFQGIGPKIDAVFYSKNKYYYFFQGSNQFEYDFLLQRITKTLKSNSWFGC
Experimental: as §1, §2, §3, §4
as §5, with “Compounds” for “• Compounds”, “metalloelastase (MMP12)” for “collagenase (MMP1)”

SMILES | IC50 (collagenase (MMP1)) [µM] | IC50 (92 kDa gelatinase (MMP9)) [µM] | IC50 (metalloelastase (MMP12)) [µM] | ID50 for inhibition of IL2-induced peritoneal recruitment of lymphocytes [1] [mg/kg]
CC(C)C[C@@H](C(=O)N[C@H](c1noc(-c2ccco2)n1)C(C)(C)C)[C@H](O)C(=O)O [Example 30, 3R-[1S-(5-Furan-2-yl-[1,2,4]oxadiazol-3-yl)-2,2-dimethyl-propylcarbamoyl]-2S-hydroxy-5-methyl-hexanoic Acid] | > 10 | > 10 | 1 to 10 | 
CC(C)(C)[C@H](NC(=O)[C@H](C/C=C/c1ccccc1)[C@H](O)C(=O)NO)c1nc(-c2ccccc2)no1 [Example 31, N4-[2,2-Dimethyl-1S-(3-phenyl-[1,2,4]oxadiazol-5-yl)-propyl]-2S,N1-dihydroxy-3R-(3-phenyl-allyl)-succinamide] | > 10 | > 10 | 0.1 to 1 | 
CC(C)(C)[C@H](NC(=O)[C@H](CCCc1cc(C(F)(F)F)cc(C(F)(F)F)c1)[C@H](O)C(=O)NO)c1noc(-c2cccs2)n1 [Example 33, 2R-[3-(3,5-Bis-trifluoromethyl-phenyl)-propyl]-N1-[2,2-dimethyl-1S-(5-thiophen-2-yl-[1,2,4]oxadiazol-3-yl)-propyl]-3S, N4-dihydroxy-succinamide] | > 10 | > 10 | 0.1 to 1 | 
CC(C)(C)[C@H](NC(=O)[C@H](CCCc1cc(C(F)(F)F)cc(C(F)(F)F)c1)[C@H](O)C(=O)NO)c1noc(-c2ccco2)n1 [Example 34, 2R-[3-(3,5-Bis-trifluoromethyl-phenyl)-propyl]-N1-[1S-(5-furan-2-yl-[1,2,4]oxadiazol-3-yl)-2,2-dimethyl-propyl]-3S,N4-dihydroxy-succinamide] | > 10 | > 10 | > 10 | 
CCOc1ccc(CCC[C@@H](C(=O)N[C@H](c2noc(-c3ccco3)n2)C(C)(C)C)[C@H](O)C(=O)NO)cc1 [Example 35, 2R-[3-(4-Ethoxy-phenyl)-propyl]-N1-[1S-(5-furan-2-yl-[1,2,4]oxadiazol-3-yl)-2,2-dimethyl-propyl]-3S,N4-dihydroxy-succinamide] | > 10 | < 0.1 | < 0.1 | 
C[C@@H]1C[C@H]2[C@@H]3CCC4=CC(=O)C=C[C@]4(C)[C@@]3(F)[C@@H](O)C[C@]2(C)[C@@]1(O)C(=O)CO [dexamethasone, reference compound] |  |  |  | 0.05

Second part, led by results:

IC50 (collagenase (MMP1)) [µM] | IC50 (92 kDa gelatinase (MMP9)) [µM] | IC50 (metalloelastase (MMP12)) [µM] | SMILES | ID50 for inhibition of IL2-induced peritoneal recruitment of lymphocytes [1] [mg/kg]
0.1 to 1 | 0.1 to 1 | < 0.1 | CC(C)C[C@@H](C(=O)N[C@H](c1noc(-c2ccco2)n1)C(C)(C)C)[C@H](O)C(=O)NO [Example 5, 2S-Hydroxy-3R-[1S-(5-furan-2-yl-[1,2,4]oxadiazol-3-yl)-2,2-dimethyl-propylcarbamoyl]-5-methyl Hexanohydroxamic Acid] | 1
0.1 to 1 | 0.1 to 1 | < 0.1 | CC(C)C[C@@H](C(=O)N[C@H](c1nc(-c2ccccc2)no1)C(C)C)[C@H](O)C(=O)NO [Example 19, 2S, N1-Dihydroxy-3R-isobutyl-N4-[2-methyl-1S-(3-phenyl-[1,2,4]oxadiazol-5-yl)-propyl]-succinamide] | 
0.1 to 1 | < 0.1 | < 0.1 | C=CC[C@H](C(=O)NO)[C@@H](CC(C)C)C(=O)N[C@@H](Cc1ccccc1)c1nc(-c2ccccc2)no1 [Example 20, 2S-Allyl-5-methyl-3R-[2-phenyl-1S-(3-phenyl-[1,2,4]oxadiazol-5-yl)-ethylcarbamoyl]-hexanohydroxamic Acid] | 
0.1 to 1 | < 0.1 | < 0.1 | C=CC[C@H](C(=O)NO)[C@@H](CC(C)C)C(=O)N[C@@H](Cc1ccccc1)c1nc(C(C)C)no1 [Example 21, 2S-Allyl-5-methyl-3R-[2-phenyl-1S-(3-isopropyl-[1,2,4]oxadiazol-5-yl)-ethylcarbamoyl]-hexanohydroxamic Acid] | 
0.1 to 1 | < 0.1 | < 0.1 | C=CC[C@H](C(=O)NO)[C@@H](CC(C)C)C(=O)N[C@H](c1nc(C)no1)C(C)(C)C [Example 23, 2S-Allyl-3R-[2,2-dimethyl-I S-(3-methyl-[1,2,4]oxadiazol-5-yl)-propylcarbamoyl]-5-methyl-hexanohydroxamic Acid] | 
1 to 10 | 1 to 10 | < 0.1 | CC(C)C[C@H](CC(=O)NO)C(=O)N[C@H](c1nc(-c2ccccc2)no1)C(C)(C)C [Example 24, 3R-[2,2-Dimethyl-1S-(3-phenyl-[1,2,4]oxadiazol-5-yl)-propylcarbamoyl]-5-methyl-hexanohydroxamic Acid] | 
0.1 to 1 | 0.1 to 1 | < 0.1 | CO[C@H](C(=O)NO)[C@@H](CC(C)C)C(=O)N[C@@H](Cc1ccccc1)c1nc(C)no1 [Example 25, 2S-Methoxy-5-methyl-3R-[1S-(3-methyl-[1,2,4]oxadiazol-5-yl)-2-phenyl-ethylcarbamoyl]-hexanohydroxamic Acid] | 
1 to 10 | 1 to 10 | 0.1 to 1 | CC(C)C[C@@H](C(=O)N[C@H](c1noc(-c2cccs2)n1)C(C)(C)C)[C@H](O)C(=O)O [Example 29, 3R-[2,2-Dimethyl-1S-(5-thiophen-2-yl-[1,2,4]oxadiazol-3-yl)-propylcarbamoyl]-2S-hydroxy-5-methyl-hexanoic Acid] | 
< 0.1 | < 0.1 | < 0.1 | CC(C)c1noc([C@@H](NC(=O)[C@H](CC2CCCC2)[C@H](O)C(=O)NO)C(C)(C)C)n1 [Example 32, 2R-Cyclopentylmethyl-3S,N4-dihydroxy-N1-[1S-(3-isopropyl-[1,2,4]oxadiazol-5-yl)-2,2-dimethyl-propyl]-succinamide] | 
